The values that follow come from paper PMC7563222, “Recognition of Dimeric Lewis X by Anti-Dimeric Le^x Antibody SH2” (Vaccines, 2020).

Data set [1] deals with mAb 1G5F6. More on the design: method as in PMID 31666308. The conditions noted are these: DimLe^x-BSA conjugate 1 immobilized; Le^x trisaccharide 7 as reference; --- = No inhibition; cited from earlier work.
Data set [2] relates to mAb SH2. Briefly: Competitive ELISA: inhibition of mAb SH2 binding to immobilized (DimLe^x)16-BSA conjugate 1. More on the design: species or system mouse. The conditions noted are these: for IC50: DimLe^x-BSA conjugate 1 immobilized (5 μg/mL), SH2 ascites 1:500; for ∆(∆G): RT ln([I1]/[I2]), reference inhibitor DimLe^x 6; for ∆(∆G) / SH2 ∆(∆G): T = 296 K; for SH2 ∆(∆G): reference inhibitor Le^x 7, --- = No inhibition. The procedure: A MaxiSorp NUNC 96-well ELISA microtiter plate was coated with a dilution of the (DimLe^x)16-BSA conjugate 1 (100 μL per well, 5 μg/mL) in a 10 mM PBS solution at pH 7.1. The plate was covered with sealing tape and incubated at 4 °C overnight. The antigen solution was discarded, and the plate was washed (using ELx405 auto plate washer, 5 × 15 s) with a 10 mM PBS buffer at pH 7.3 containing 0.05% Tween 20. In 1.5 mL Eppendorf tubes, 175 μL dilutions of competitors (concentration ranging from 0.632 mg/mL to 2 mg/mL in 10 mM PBS-0.05% Tween 20) were incubated for 1 h at 23 °C (in the dark) with 175 μL of a solution of SH2 ascites (1:500 dilution in 10 mM PBS-0.05% Tween 20). At the same time, the plate was blocked with 0.05% skim milk in PBS (300 μL per well). After 1 h of incubation at 37 °C, the plate was washed with 10 mM PBS-0.05% Tween 20. Each well then received 100 μL of the competitor-mAb mixture. Three wells were used as the blank control in which the competitor-mAb mixture was not added, rather received 100 μL of 10 mM PBS-0.05% Tween 20. The plate was incubated for 3 h at 23 °C (in the dark). The plate was subsequently washed using the plate washer with PBS-0.05% Tween 20. A dilution of commercially available horseradish peroxidase labeled goat anti-mouse antibody (1:5000 in 10 mM PBS-0.05% Tween 20, 100 μL per well) was added to each well. After 1 h of incubation at 23 °C (in the dark), the plate was washed with 10 mM PBS-0.05% Tween 20. A solution of the chromogenic substrate TMB (100 μL per well) was added. After a 10 min incubation period at 23 °C (in the dark), 100 μL of 5% Phosphoric Acid stop solution was added to the wells to quench the reaction. The absorbance values were read at 450 nm employing a PowerWave XS plate reader. All samples were prepared in triplicate. The absorbance values were plotted as the percentage inhibition against an increasing concentration of competitor, calculated using wells containing no competitor as the reference point. The values were fitted to a 4-parameter logistics sigmoidal equation: y = y0 + a/[1 + (x/x0)^b] using Sigma Plot 10.0. The concentration of each analogue required for 50% inhibition (IC50) of Le^x-SH2 binding and the corresponding changes in free energy Δ(ΔG) of binding (kcal·mol^−1) using DimLe^xOPr 6 (Table 1) or Le^xOMe 7 (Table 2) as the reference were calculated.
On the technique in general: An ELISA detects its analyte on a solid surface through an enzyme-linked reagent.

Data set [3] concerns mAb SH1. The conditions noted are these: cited from earlier work; for SH1 ∆(∆G): Le^x-BSA conjugate 4 immobilized, Le^x trisaccharide 7 as reference, --- = No inhibition.
Where [4] appears, read: Table 1, read-out: IC50 (concentration of inhibitor required for 50% inhibition).

Like-named read-outs stand apart in the source and are kept apart here. Some results are limits rather than exact numbers.

Take `CO[C@@H]1O[C@H](CO)[C@@H](O[C@@H]2O[C@H](CO)[C@H](O)[C@H](O)[C@H]2O)[C@H](O[C@@H]2O[C@@H](C)[C@@H](O)[C@@H](O)[C@@H]2O)[C@H]1O` [compound 15, LacLe^x]: the “1G5F6 ∆(∆G)” value in data set [1] is 2.5 kcal/mol. For the same compound, the “Inhibition of SH2 binding to (DimLe^x)16-BSA by soluble oligosaccharide (in words)” value (from here on “Inhibition of SH2 binding”) in data set [2] was “no inhibition”. Moreover, the IC50 in data set [2] (Table 2, read-out: SH2 IC50) is more than 1800 µM. Further, the “SH1 ∆(∆G)” value in data set [3] was 0.2 kcal/mol.

With `COC1OC(CO)C(OC2OC(CO)C(O)C(O)C2O)C(OC2OC(C)C(O)C(O)C2O)C1NC(C)=O` (stereo not shown) [compound 16, GlcLe^x], the “1G5F6 ∆(∆G)” value in data set [1] is 2.7 kcal/mol. Besides, the “Inhibition of SH2 binding” value in data set [2] is listed as “no inhibition”. The IC50 in data set [2] (Table 2, read-out: SH2 IC50) is more than 1800 µM. The “Binding by SH1 (in words)” value in data set [3] (galactose of Le^x replaced by glucose) was “total loss of binding”.

Regarding `CCCO[C@@H]1O[C@H](CO)[C@@H](O[C@@H]2O[C@H](CO)[C@H](O)[C@H](O[C@@H]3O[C@H](CO)[C@@H](O[C@@H]4O[C@H](CO)[C@H](O)[C@H](O)[C@H]4O)[C@H](O[C@@H]4O[C@@H](C)[C@@H](O)[C@@H](O)[C@@H]4O)[C@H]3NC(C)=O)[C@H]2O)[C@H](O[C@@H]2O[C@@H](C)[C@@H](O)[C@@H](O)[C@@H]2O)[C@H]1NC(C)=O` [compound 6, DimLe^x propyl hexasaccharide], in data set [2] (setting [4]), the IC50 was found to be 503 µM. Also, in data set [2] (Table 1), the “∆(∆G)” value amounted to 0 kcal/mol.

In the case of `CO[C@@H]1O[C@H](CO)[C@@H](O[C@@H]2O[C@H](CO)[C@H](O)[C@H](O)[C@H]2O)[C@H](O[C@@H]2O[C@@H](C)[C@H](O)[C@@H](O)[C@H]2O)[C@H]1O` [compound 18, RhaLac], the “1G5F6 ∆(∆G)” value in data set [1] was 3.2 kcal/mol. Further, the “Inhibition of SH2 binding” value in data set [2] is recorded as “no inhibition”. In data set [2] (Table 2, read-out: SH2 IC50), the IC50 was more than 1800 µM. Also, in data set [3], the “SH1 ∆(∆G)” value was 1.5 kcal/mol.

For the compound `CO[C@@H]1O[C@H](CO)[C@@H](O[C@@H]2O[C@H](CO)[C@H](Cl)[C@H](O)[C@H]2O)[C@H](O[C@@H]2O[C@@H](C)[C@@H](O)[C@@H](O)[C@@H]2O)[C@H]1O` [compound 21, 4″-ClLe^x], in data set [1], the “1G5F6 ∆(∆G)” value was 0.3 kcal/mol. In data set [2] (Table 2, read-out: SH2 IC50), the IC50 turned out to be 19 µM. For the same compound, in data set [2] (Table 2), the “SH2 ∆(∆G)” value is -0.5 kcal/mol. Moreover, the “SH1 ∆(∆G)” value in data set [3] was 1.6 kcal/mol.

In the case of `CO[C@@H]1O[C@H](CO)[C@@H](O[C@@H]2O[C@H](CO)[C@H](O)[C@H](O)[C@H]2O)[C@H](O[C@@H]2O[C@@H](C)[C@H](O)[C@@H](O)[C@H]2O)[C@H]1NC(C)=O` [compound 17, RhaLe^x], the “1G5F6 ∆(∆G)” value in data set [1] was 1.6 kcal/mol. For the same compound, the IC50 in data set [2] (Table 2, read-out: SH2 IC50) turned out to be 827 µM. For the same compound, the “SH2 ∆(∆G)” value in data set [2] (Table 2) is 1.7 kcal/mol. Besides, the “SH1 ∆(∆G)” value in data set [3] is 1.1 kcal/mol.

In the case of `CCCCCO[C@@H]1O[C@H](CO)[C@@H](O[C@@H]2O[C@H](CO)[C@H](O)[C@H](O[C@@H]3O[C@H](CO)[C@@H](O)[C@H](O[C@@H]4O[C@@H](C)[C@@H](O)[C@@H](O)[C@@H]4O)[C@H]3NC(C)=O)[C@H]2O)[C@H](O[C@@H]2O[C@@H](C)[C@@H](O)[C@@H](O)[C@@H]2O)[C@H]1NC(C)=O` [compound 14, Fuc[1,3,]GlcNAc[1,3″]Le^x], the “Inhibition of SH2 binding” value in data set [2] was “lack of competitive binding”.

For the compound `CO[C@@H]1O[C@H](CO)[C@@H](O[C@@H]2O[C@H](CO)[C@H](O)[C@H](O)[C@H]2O)[C@H](O[C@@H]2O[C@@H](C)[C@@H](O)[C@@H](O)[C@@H]2O)[C@H]1NC(C)=O` [compound 7, Le^x methyl glycoside], the “1G5F6 ∆(∆G)” value in data set [1] is 0 kcal/mol. Further, the IC50 in data set [2] (setting [4]) came out at 47 µM. For the same compound, the “∆(∆G)” value in data set [2] (Table 1) was -1.4 kcal/mol. The “SH2 ∆(∆G)” value in data set [2] (Table 2) stood at 0 kcal/mol. Besides, the “SH1 ∆(∆G)” value in data set [3] was 0 kcal/mol.

Consider `CC(=O)NC1C(OC2C(O)C(O)OC(CO)C2O)OC(CO)C(OC2OC(CO)C(O)C(O)C2O)C1OC1OC(C)C(O)C(O)C1O` (stereo not shown) [compound 9, Lex[1,3]Gal, reference compound], for which the IC50 in data set [2] (setting [4]) was determined as 529 µM. In data set [2] (Table 1), the “∆(∆G)” value is 0.03 kcal/mol.

Regarding `CO[C@@H]1O[C@H](CO)[C@@H](O[C@@H]2O[C@H](CO)[C@H](OC)[C@H](O)[C@H]2O)[C@H](O[C@@H]2O[C@@H](C)[C@@H](O)[C@@H](O)[C@@H]2O)[C@H]1O` [compound 19], the IC50 in data set [2] (Table 2, read-out: SH2 IC50) stood at 148 µM. In addition, in data set [2] (Table 2), the “SH2 ∆(∆G)” value was found to be 0.7 kcal/mol.

Turning to `CCCCCCO[C@@H]1O[C@H](CO)[C@@H](O[C@@H]2O[C@H](CO)[C@H](O)[C@H](O[C@@H]3O[C@H](CO)[C@@H](O[C@@H]4O[C@H](CO)[C@H](O)[C@H](O)[C@H]4O)[C@H](O)[C@H]3NC(C)=O)[C@H]2O)[C@H](O[C@@H]2O[C@@H](C)[C@@H](O)[C@@H](O)[C@@H]2O)[C@H]1NC(C)=O` [compound 13, LacNAc[1,3″]Lex], the “Inhibition of SH2 binding” value in data set [2] was “lack of competitive binding”.

`CO[C@@H]1O[C@H](CO)[C@@H](O[C@@H]2O[C@H](CO)[C@H](F)[C@H](O)[C@H]2O)[C@H](O[C@@H]2O[C@@H](C)[C@@H](O)[C@@H](O)[C@@H]2O)[C@H]1O` [compound 22, 4″-FLe^x]: the “1G5F6 ∆(∆G)” value in data set [1] is -0.1 kcal/mol. In addition, the IC50 in data set [2] (Table 2, read-out: SH2 IC50) amounted to 17 µM. Moreover, in data set [2] (Table 2), the “SH2 ∆(∆G)” value was -0.6 kcal/mol. The “SH1 ∆(∆G)” value in data set [3] is 2.1 kcal/mol.

`CO[C@@H]1O[C@H](CO)[C@@H](O[C@@H]2O[C@H](CO)C[C@H](O)[C@H]2O)[C@H](O[C@@H]2O[C@@H](C)[C@@H](O)[C@@H](O)[C@@H]2O)[C@H]1O` [compound 20, 4″-HLe^x]: the “1G5F6 ∆(∆G)” value in data set [1] is 0.3 kcal/mol. The IC50 in data set [2] (Table 2, read-out: SH2 IC50) was 74 µM. In addition, the “SH2 ∆(∆G)” value in data set [2] (Table 2) is 0.3 kcal/mol. The “SH1 ∆(∆G)” value in data set [3] is 1.3 kcal/mol.

Regarding `CO[C@@H]1O[C@H](CO)[C@@H](O[C@@H]2O[C@H](CO)[C@H](O)[C@H](O[C@@H]3O[C@H](CO)[C@@H](O)[C@H](O)[C@H]3NC(C)=O)[C@H]2O)[C@H](O[C@@H]2O[C@@H](C)[C@@H](O)[C@@H](O)[C@@H]2O)[C@H]1NC(C)=O` [compound 10, GlcNAc[1,3″]Le^x], the IC50 in data set [2] (setting [4]) was found to be 18600 µM. Besides, the “∆(∆G)” value in data set [2] (Table 1) stood at 2.1 kcal/mol.
